Tests used:
Format in all cases: functional
HCT-116 = experiment: Cytotoxicity against Homo sapiens (human) HCT116 cells after 48 hr by sulforhodamine B assay; conditions: HCT-116, 48 h
HOP-92 = experiment: Cytotoxicity against Homo sapiens (human) HOP92 cells after 48 hr by sulforhodamine B assay; conditions: HOP-92, 48 h; for TGI: read-out: pTGI (converted)
HL-60(TB) = experiment: Cytotoxicity against Homo sapiens (human) HL-60(TB) cells after 48 hr by sulforhodamine B assay; conditions: HL-60, 48 h; for CC50: read-out: pLC50 (the source's name) (converted); for TGI: read-out: pTGI (converted)
[1] = Anticancer activity in Homo sapiens (human) NCI-ADR-RES cells assessed as cell growth at 10^-5 M after 48 hr by SRB assay; conditions: read-out: Activity
MCF7 = experiment: Cytotoxicity against Homo sapiens (human) MCF7 cells after 48 hr by sulforhodamine B assay; conditions: MCF7, 48 h
PC-3 = experiment: Cytotoxicity against Homo sapiens (human) PC3 cells after 48 hr by sulforhodamine B assay; conditions: PC-3, 48 h; for TGI: read-out: pTGI (converted)
CAKI-1 [2] = experiment: Cytotoxicity against Homo sapiens (human) Caki1 cells after 48 hr by sulforhodamine B assay; conditions: CAKI-1, 48 h; for TGI: read-out: pTGI (converted)
OVCAR-3 = experiment: Cytotoxicity against Homo sapiens (human) OVCAR3 cells after 48 hr by sulforhodamine B assay; conditions: OVCAR-3, 48 h
Malme-3M = experiment: Cytotoxicity against Homo sapiens (human) MALME-3M cells after 48 hr by sulforhodamine B assay
SF-295 = experiment: Cytotoxicity against Homo sapiens (human) SF295 cells after 48 hr by sulforhodamine B assay; conditions: SF-295, 48 h; for TGI: read-out: pTGI (converted)
CAKI-1 [3] = experiment: Anticancer activity in Homo sapiens (human) Caki1 cells assessed as cell growth at 10^-5 M after 48 hr by SRB assay; conditions: CAKI-1, 48 h, read-out: Activity
LOX IMVI = experiment: Anticancer activity in Homo sapiens (human) LOXIMVI cells assessed as cell growth at 10^-5 M after 48 hr by SRB assay; conditions: read-out: Activity
KM12 = experiment: Cytotoxicity against Homo sapiens (human) KM12 cells after 48 hr by sulforhodamine B assay; conditions: KM12, 48 h
HCC 2998 [4] = experiment: Cytotoxicity against Homo sapiens (human) HCC2998 cells after 48 hr by sulforhodamine B assay; conditions: HCC 2998, 48 h
NCI-H522 = experiment: Cytotoxicity against Homo sapiens (human) NCI-H522 cells after 48 hr by sulforhodamine B assay; conditions: NCI-H522, 48 h
CCRF-CEM = experiment: Cytotoxicity against Homo sapiens (human) CCRF-CEM cells after 48 hr by sulforhodamine B assay
MDA-MB-468 = experiment: Cytotoxicity against Homo sapiens (human) MDA-MB-468 cells after 48 hr by sulforhodamine B assay; conditions: MDA-MB-468, 48 h
[5] = Cytotoxicity against Homo sapiens (human) NCI-ADR-RES cells after 48 hr by sulforhodamine B assay
MDA-MB-435 = experiment: Cytotoxicity against Homo sapiens (human) MDA-MB-435 cells after 48 hr by sulforhodamine B assay; conditions: MDA-MB-435, 48 h
HCC 2998 [6] = experiment: Anticancer activity in Homo sapiens (human) HCC2998 cells assessed as cell growth at 10^-5 M after 48 hr by SRB assay; conditions: HCC 2998, 48 h, read-out: Activity

Work on `COc1ccc(-n2c(-c3ccc(Cl)cc3)cs/c2=N\NC(=O)c2ccc(O)cc2)c(OC)c1` yielded a GI50 (HCT-116) of 27.5 µM, an LC50 (HCT-116) of over 100 µM and a TGI (HCT-116; read-out: pTGI (converted)) of over 100 µM. For the same compound, the GI50 (HOP-92) was 14.5 µM, the LC50 (HOP-92) was over 100 µM and the TGI (HOP-92) was 64.6 µM. For the same compound, the GI50 (HL-60(TB)) was 17.8 µM, the CC50 (HL-60(TB)) was over 100 µM and the TGI (HL-60(TB)) was 81.3 µM. It also gave a growth at 10 µM [1] of -1.18%, a GI50 (MCF7) of 25.1 µM and an LC50 (MCF7) of over 100 µM. It also gave a TGI (MCF7; read-out: pTGI (converted)) of over 100 µM, a GI50 (PC-3) of 18.2 µM and an LC50 (PC-3) of over 100 µM. It also gave a TGI (PC-3) of over 100 µM, a GI50 (CAKI-1 [2]) of 22.9 µM and an LC50 (CAKI-1 [2]) of over 100 µM. For the same compound, the TGI (CAKI-1 [2]) was over 100 µM, the GI50 (OVCAR-3) was 26.9 µM and the LC50 (OVCAR-3) was over 100 µM. It also gave a TGI (OVCAR-3; read-out: pTGI (converted)) of 83.2 µM, a GI50 (Malme-3M) of 25.1 µM and an LC50 (Malme-3M) of over 100 µM. The TGI (Malme-3M; read-out: pTGI (converted)) was 91.2 µM, the GI50 (SF-295) was 27.5 µM and the LC50 (SF-295) was over 100 µM. It also gave a TGI (SF-295) of over 100 µM.
For `COc1ccc(-c2nn(C(=O)c3ccc(O)cc3)c(=S)s2)cc1`, the growth at 10 µM (CAKI-1 [3]) was 68%.
In the case of `O=C(c1ccc(O)cc1)n1nc(-c2ccc(O)cc2)sc1=S`, the growth at 10 µM (LOX IMVI) is reported as -0.61%.
`O=C(N/N=c1\scc(-c2ccc(Cl)cc2)n1-c1ccc(Cl)cc1Cl)c1ccc(O)cc1` gave a GI50 (KM12) of 2.63 µM, an LC50 (KM12) of 87.1 µM and a TGI (KM12; read-out: pTGI (converted)) of 8.51 µM. It also gave a GI50 (HCC 2998 [4]) of 1.95 µM, an LC50 (HCC 2998 [4]) of 53.7 µM and a TGI (HCC 2998 [4]; read-out: pTGI (converted)) of 5.25 µM. The GI50 (NCI-H522) was 2.57 µM, the LC50 (NCI-H522) was over 100 µM and the TGI (NCI-H522; read-out: pTGI (converted)) was 20 µM. It also gave a GI50 (HOP-92) of 2.95 µM, an LC50 (HOP-92) of 49 µM and a TGI (HOP-92) of 7.59 µM. It also gave a GI50 (HL-60(TB)) of 0.302 µM, a CC50 (HL-60(TB)) of over 100 µM and a TGI (HL-60(TB)) of 38 µM. The GI50 (CCRF-CEM) was 0.977 µM, the LC50 (CCRF-CEM) was over 100 µM and the TGI (CCRF-CEM; read-out: pTGI) was over 100 µM. The GI50 (MDA-MB-468) was 3.89 µM, the LC50 (MDA-MB-468) was over 100 µM and the TGI (MDA-MB-468; read-out: pTGI (converted)) was over 100 µM. For the same compound, the GI50 (PC-3) was 3.39 µM, the LC50 (PC-3) was over 100 µM and the TGI (PC-3) was over 100 µM. It also gave a GI50 (CAKI-1 [2]) of 3.31 µM, an LC50 (CAKI-1 [2]) of over 100 µM and a TGI (CAKI-1 [2]) of 52.5 µM. It also gave a GI50 [5] of 2.95 µM, an LC50 [5] of over 100 µM and a TGI ([5]; read-out: pTGI (converted)) of 8.32 µM. It also gave a GI50 (MDA-MB-435) of 2.88 µM, an LC50 (MDA-MB-435) of over 100 µM and a TGI (MDA-MB-435; read-out: pTGI (converted)) of 22.9 µM. The GI50 (SF-295) was 2.82 µM, the LC50 (SF-295) was over 100 µM and the TGI (SF-295) was 9.77 µM. It also gave a growth at 10 µM (HCC 2998 [6]) of -1.56%.

Source: ChEMBL document CHEMBL3046521, “Synthesis and antitumor activity of (4-hydroxyphenyl)[5-substituted alkyl/aryl)-2-thioxo-1,3,4-thiadiazol-3-yl]methanone and [(3,4-disubstituted)-1,3-thiazol-2ylidene]-4-hydroxybenzohydrazide” (2011)
